This note sets out measurements from patent US11319315B2, “Cyclohexyl acid triazole azoles as LPA antagonists” (BRISTOL-MYERS SQUIBB COMPANY, priority 2017, dated 2022).

The target in this experiment is T1, human LPA1 (Homo sapiens, UniProt Q92633).
T1 construct: expressed in transfected cells; host or cells: Chinese hamster ovary (CHO) cells
T1 sequence (Q92633 whole entry): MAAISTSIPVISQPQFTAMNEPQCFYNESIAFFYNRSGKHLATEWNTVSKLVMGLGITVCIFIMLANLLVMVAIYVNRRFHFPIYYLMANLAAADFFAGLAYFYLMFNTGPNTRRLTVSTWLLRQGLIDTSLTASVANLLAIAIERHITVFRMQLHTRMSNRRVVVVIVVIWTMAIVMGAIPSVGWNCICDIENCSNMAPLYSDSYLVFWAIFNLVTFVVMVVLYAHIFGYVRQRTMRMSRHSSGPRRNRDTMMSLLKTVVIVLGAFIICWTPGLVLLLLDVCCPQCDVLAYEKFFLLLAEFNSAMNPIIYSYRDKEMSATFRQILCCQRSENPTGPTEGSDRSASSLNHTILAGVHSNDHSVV
Nature of the experiment: LPA1 functional antagonist assay (LPA-induced calcium flux in CHO cells overexpressing human LPA1). In kind it is cell-based. Conditions: inhibition of calcium flux induced by 10 nM LPA, CHO cells overexpressing human LPA1; read-out: hLPA1 IC50. The gist of the method: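 Calcium flux was triggered by 10 nM LPA after 20 min room-temperature compound pre-incubation (final 0.08 nM to 5 μM, 0.5% DMSO) in human LPA1-overexpressing CHO cells carrying calcium dye. Buffer: HBSS with Ca/Mg, 20 mM HEPES, 0.1% fatty-acid-free BSA; IC50s from 4-parameter logistic fits.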
A general note: Calcium flux is commonly read through the fluorescence of an indicator in the cells.
As to `Cc1nc(-c2nnn(C)c2CNc2noc(C3CCCC3)n2)ccc1O[C@H]1CCC[C@H](C(=O)O)C1` [Example 176], the IC50 came to 0.0254 µM.

`Cc1nc(-c2nnn(C)c2CNc2noc(CCCC(F)(F)F)n2)ccc1O[C@H]1CCC[C@H](C(=O)O)C1` [Example 177]: the concentration for half-maximal inhibition (IC50) is 0.0091 µM. As for `CCC(C)c1nc(NCc2c(-c3ccc(O[C@H]4CCC[C@H](C(=O)O)C4)c(C)n3)nnn2C)no1` (stereo partly drawn) [Example 178], the IC50 came to 0.0274 µM. On to `Cc1nc(-c2nnn(C)c2CNc2noc(CCC(C)(C)F)n2)ccc1O[C@H]1CCC[C@H](C(=O)O)C1` [Example 179], for which the IC50 came to 0.0435 µM. Take `Cc1nc(-c2nnn(C)c2CNc2noc(C3CC3C)n2)ccc1O[C@H]1CCC[C@H](C(=O)O)C1` (stereo partly drawn) [Example 180]: the half-inhibitory concentration (IC50) amounted to 0.0421 µM. `Cc1nc(-c2nnn(C)c2CNc2noc(C3CC3(C)C)n2)ccc1O[C@H]1CCC[C@H](C(=O)O)C1` (stereo partly drawn) [Example 181]: the IC50 came out at 0.0241 µM. For the molecule `Cc1nc(-c2nnn(C)c2CNc2noc(C3CC3(C)C)n2)ccc1O[C@H]1CCC[C@H](C(=O)O)C1` (stereo partly drawn) [Example 182], the half-maximal inhibitory concentration (IC50) stood at 0.017 µM. Take `Cc1nc(-c2nnn(C)c2CNc2noc(CCCCF)n2)ccc1O[C@H]1CCC[C@H](C(=O)O)C1` [Example 183]: the IC50 was 0.032 µM. `Cc1nc(-c2nnn(C)c2CNc2noc(CCCF)n2)ccc1O[C@H]1CCC[C@H](C(=O)O)C1` [Example 184]: the IC50 stood at 0.074 µM. Take `Cc1nc(-c2nnn(C)c2CNc2noc(C(C)C3CC3)n2)ccc1O[C@H]1CCC[C@H](C(=O)O)C1` (stereo partly drawn) [Example 185]: the IC50 came out at 0.024 µM. With `Cc1nc(-c2nnn(C)c2CNc2noc(C3CCC(F)(F)C3)n2)ccc1O[C@H]1CCC[C@H](C(=O)O)C1` (stereo partly drawn) [Example 186], the IC50 was found to be 0.079 µM.

For the molecule `Cc1nc(-c2nnn(C)c2CNc2noc(CCC3(C)CC3)n2)ccc1O[C@H]1CCC[C@H](C(=O)O)C1` [Example 187], the IC50 came out at 0.031 µM. On to `Cc1nc(-c2nnn(C)c2CNc2noc(CCC(C)(F)F)n2)ccc1O[C@H]1CCC[C@H](C(=O)O)C1` [Example 188], for which the half-inhibitory concentration (IC50) was found to be 0.042 µM. Consider `Cc1nc(-c2nnn(C)c2CNc2noc(C3CC(F)C3)n2)ccc1O[C@H]1CCC[C@H](C(=O)O)C1` (stereo partly drawn) [Example 189], for which the IC50 came out at 0.074 µM. With `Cc1nc(-c2nnn(C)c2CNc2noc(C3CC(F)C3)n2)ccc1O[C@H]1CCC[C@H](C(=O)O)C1` (stereo partly drawn) [Example 190] the figure was 0.055 µM; with `Cc1nc(-c2nnn(C)c2CNc2noc([C@H]3C[C@@](C)(F)C3)n2)ccc1O[C@H]1CCC[C@H](C(=O)O)C1` [Example 191], 0.112 µM; with `Cc1nc(-c2nnn(C)c2CNc2noc([C@H]3C[C@](C)(F)C3)n2)ccc1O[C@H]1CCC[C@H](C(=O)O)C1` [Example 192], 0.052 µM. Turning to `Cc1nc(-c2nnn(C)c2CNc2noc(C(C)C3CC3)n2)ccc1O[C@H]1CCC[C@H](C(=O)O)C1` (stereo partly drawn) [Example 193], the IC50 came out at 0.033 µM. The result for `Cc1nc(-c2nnn(C)c2CNc2noc(C(C)C3CC3)n2)ccc1O[C@H]1CCC[C@H](C(=O)O)C1` (stereo partly drawn) [Example 194] reads 0.025 µM; that for `Cc1nc(-c2nnn(C)c2CNc2noc(CC3CC3(F)F)n2)ccc1O[C@H]1CCC[C@H](C(=O)O)C1` (stereo partly drawn) [Example 195], 0.025 µM; that for `Cc1nc(-c2nnn(C)c2CNc2noc(CC3CC3(F)F)n2)ccc1O[C@H]1CCC[C@H](C(=O)O)C1` (stereo partly drawn) [Example 196], 0.028 µM.

For the molecule `CCCC(C)(C)c1nc(NCc2c(-c3ccc(O[C@H]4CCC[C@H](C(=O)O)C4)c(C)n3)nnn2C)no1` [Example 197], the IC50 was determined as 0.042 µM. As for `Cc1nc(-c2nnn(C)c2CNc2noc(C3CC(C)C3)n2)ccc1O[C@H]1CCC[C@H](C(=O)O)C1` (stereo partly drawn) [Example 198], the IC50 turned out to be 0.028 µM. On to `Cc1nc(-c2nnn(C)c2CNc2noc(C3CC(C)C3)n2)ccc1O[C@H]1CCC[C@H](C(=O)O)C1` (stereo partly drawn) [Example 199], for which the IC50 came out at 0.033 µM.

Consider `Cc1nc(-c2nnn(C)c2CNc2noc(CCC(C)F)n2)ccc1O[C@H]1CCC[C@H](C(=O)O)C1` (stereo partly drawn) [Example 200], for which the IC50 stood at 0.031 µM.

Regarding `Cc1nc(-c2nnn(C)c2CNc2noc(CCC(C)F)n2)ccc1O[C@H]1CCC[C@H](C(=O)O)C1` (stereo partly drawn) [Example 201], the IC50 is 0.032 µM. As to `C=CCC(C)c1nc(NCc2c(-c3ccc(O[C@H]4CCC[C@H](C(=O)O)C4)c(C)n3)nnn2C)no1` (stereo partly drawn) [Example 202], the IC50 worked out at 0.0084 µM.

On to `C=C1CC(c2nc(NCc3c(-c4ccc(O[C@H]5CCC[C@H](C(=O)O)C5)c(C)n4)nnn3C)no2)C1` [Example 203], for which the IC50 came out at 0.0115 µM.

As to `Cc1nc(-c2nnn(C)c2CNc2noc(C3CC34CC4)n2)ccc1O[C@H]1CCC[C@H](C(=O)O)C1` (stereo partly drawn) [Example 204], the IC50 came out at 0.0181 µM. On to `Cc1nc(-c2nnn(C)c2CNc2noc(C3CC34CC4)n2)ccc1O[C@H]1CCC[C@H](C(=O)O)C1` (stereo partly drawn) [Example 205], for which the IC50 was 0.024 µM. With `Cc1nc(-c2nnn(C)c2Cn2ncnc2C2CC2)ccc1O[C@H]1CCC[C@H](C(=O)O)C1` [Example 206], the IC50 was determined as 1.09 µM. With `Cc1nc(-c2nnn(C)c2Cn2ncnc2-c2ccccc2)ccc1O[C@H]1CCC[C@H](C(=O)O)C1` [Example 207, (1S,3S)-3-((2-Methyl-6-(1-methyl-5-((5-phenyl-1H-1,2,4-triazol-1-yl)methyl)-1H-1,2,3-triazol-4-yl)pyridin-3-yl)oxy)cyclohexane-1-carboxylic acid] the figure was 0.213 µM. The result for `Cc1nc(-c2nnn(C)c2Cn2cnc(-c3ccccc3)n2)ccc1O[C@H]1CCC[C@H](C(=O)O)C1` [Example 208, (1S,3S)-3-((2-Methyl-6-(1-methyl-5-((3-phenyl-1H-1,2,4-triazol-1-yl)methyl)-1H-1,2,3-triazol-4-yl)pyridin-3-yl)oxy)cyclohexane-1-carboxylic acid] reads 0.37 µM; that for `Cc1nc(-c2nnn(C)c2Cn2cnnc2CC2CC2)ccc1O[C@H]1CCC[C@H](C(=O)O)C1` [Example 209], 2.08 µM; that for `Cc1nc(-c2nnn(C)c2Cn2cnc(CC3CC3)n2)ccc1O[C@H]1CCC[C@H](C(=O)O)C1` [Example 210], 0.191 µM. In the case of `Cc1nc(-c2nnn(C)c2CNc2ncn(-c3cc(F)cc(F)c3)n2)ccc1O[C@H]1CCC[C@H](C(=O)O)C1` [Example 211, (1 S,3 S)-3-((6-(5-(((1-(3,5-difluorophenyl)-1H-1,2,4-triazol-3-yl)amino)methyl)-1-methyl-1H-1,2,3-triazol-4-yl)-2-methylpyridin-3-yl)oxy)cyclohexane-1-carboxylic acid], the IC50 was 0.045 µM. Take `Cc1nc(-c2nnn(C)c2CNc2noc(COC3CC3)n2)ccc1O[C@H]1CCC[C@H](C(=O)O)C1` [Example 212, (1 S,3 S)-3-((6-(5-(((5-(cyclopropoxymethyl)-1,2,4-oxadiazol-3-yl)amino)methyl)-1-methyl-1H-1,2,3-triazol-4-yl)-2-methylpyridin-3-yl)oxy)cyclohexane-1-carboxylic acid]: the IC50 came out at 0.034 µM.

For the molecule `CCOCCc1nc(NCc2c(-c3ccc(O[C@H]4CCC[C@H](C(=O)O)C4)c(C)n3)nnn2C)no1` [Example 213, (1S,3S)-3-((6-(5-(((5-(2-ethoxy-ethyl)-1,2,4-oxadiazol-3-yl)amino)methyl)-1-methyl-1H-1,2,3-triazol-4-yl)-2-methylpyridin-3-yl)oxy)cyclohexane-1-carboxylic acid], the IC50 was found to be 0.098 µM. `Cc1nc(-c2nnn(C)c2CNc2noc(CCOC(C)C)n2)ccc1O[C@H]1CCC[C@H](C(=O)O)C1` [Example 214, (1S,3S)-3-((6-(5-(((5-(2-isopro-poxyethyl)-1,2,4-oxadiazol-3-yl)amino)methyl)-1-methyl-1H-1,2,3-triazol-4-yl)-2-methylpyridin-3-yl)oxy)cyclohexane-1-carboxylic acid]: the IC50 was found to be 0.246 µM.

For `CCCO[C@H](C)c1nc(NCc2c(-c3ccc(O[C@H]4CCC[C@H](C(=O)O)C4)c(C)n3)nnn2C)no1` [Example 219, (1S,3S)-3-((2-methyl-6-(1-methyl-5-(((5-((R)-1-propoxyethyl)-1,2,4-oxadiazol-3-yl)amino)methyl)-1H-1,2,3-triazol-4-yl)pyridin-3-yl)oxy)cyclohexane-1-carboxylic acid], the IC50 was 0.063 µM.

Regarding `CCCO[C@@H](C)c1nc(NCc2c(-c3ccc(O[C@H]4CCC[C@H](C(=O)O)C4)c(C)n3)nnn2C)no1` [Example 220], the IC50 came out at 0.16 µM. With `CCc1nc(N(C)Cc2c(-c3ccc(O[C@H]4CCC[C@H](C(=O)O)C4)c(C)n3)nnn2C)no1` [Example 224, (1S,3S)-3-((6-(5-(((5-ethyl-1,2,4-oxadiazol-3-yl)(methyl)amino)methyl)-1-methyl-1H-1,2,3-triazol-4-yl)-2-methylpyridin-3-yl)oxy)cyclo-hexane-1-carboxylic acid], the IC50 worked out at 2.72 µM. Consider `CCOC1(c2nc(NCc3c(-c4ccc(O[C@H]5CCC[C@H](C(=O)O)C5)c(C)n4)nnn3C)no2)CC1` [Example 225, (1S,3S)-3-((6-(5-(((5-(1-ethoxy-cyclopropyl)-1,2,4-oxadiazol-3-yl)amino)methyl)-1-methyl-1H-1,2,3-triazol-4-yl)-2-methylpyridin-3-yl)oxy)cyclohexane-1-carboxylic acid], for which the IC50 was 1.32 µM. For the molecule `Cc1nc(-c2nnn(C)c2Cc2noc(CCC(C)(F)F)n2)ccc1O[C@H]1CCC[C@H](C(=O)O)C1` [Example 227, (1 S,3 S)-3-((6-(5-((5-(3,3-difluorobutyl)-1,2,4-oxadiazol-3-yl)methyl)-1-methyl-1H-1,2,3-triazol-4-yl)-2-methylpyridin-3-yl)oxy)cyclohexane-1-carboxylic acid], the IC50 came out at 0.002 µM.

For the molecule `Cc1nc(-c2nnn(C)c2Cc2noc(CC3CC3)n2)ccc1O[C@H]1CCC[C@H](C(=O)O)C1` [Example 228, (1S,3S)-3-((6-(5-((5-(cyclopropylmethyl)-1,2,4-oxadiazol-3-yl)methyl)-1-methyl-1H-1,2,3-triazol-4-yl)-2-methylpyridin-3-yl)oxy)cyclohexane-1-carboxylic acid], the IC50 stood at 0.019 µM.

By IC50 is commonly meant the concentration that inhibits the measured activity by half.
